According to patent US20080319055A1, “Cooling Compounds” (GIVAUDAN SA, priority 2005, published 2008):

Assays:
[1] = system: trained panel of 4 to 8 people; experiment: Cooling intensity by trained panel, isointensity method versus menthol; assay type: in vivo; settings: aqueous solutions tasted, compared to aqueous solution of reference menthol at 2 ppm
Method: The cooling intensity of the compounds was determined by a trained panel of 4 to 8 people according to the isointensity method as described below.
Aqueous solutions of various concentrations of a chemical compound were prepared and tasted. The cooling intensity of each solution was compared to that of an aqueous solution of the reference compound at 2 ppm, namely menthol.

mouth = experiment: Application in mouthwash, cooling sensation in the mouth; assay type: in vivo; settings: 50 mL of 1% solution in alcohol per 1 liter mouthwash (also contains peppermint oil); 30 mL swished, gargled and spit out
Method: All the ingredients were mixed. 30 mL of obtained solution was put in the mouth, swished around, gargled and spit out.

CC(C)C(C)(NC(=O)c1ccc2c(c1)OCO2)C(C)C [Ex. 5K, N-(1-methyl-1-isopropyl-isobutyl)benzo[1,3]dioxole-5-carboxamide]
rel. cooling intensity [1]: 0.9

CC(C)C(C)(NC(=O)c1ccc(-c2ccccc2)cc1)C(C)C [Ex. 5F, N-(1-methyl-1-isopropyl-isobutyl) biphenyl-4-carboxamide]
rel. cooling intensity [1]: 1.5

COC(=O)c1ccc(C(=O)NC(C)(C(C)C)C(C)C)cc1 [Ex. 5C, N-(1-methyl-1-isopropyl-isobutyl) O-methylterephthalamate]
rel. cooling intensity [1]: 1.7

CC1(C)C2CCC1(C)C(NC(=O)c1ccccc1)C2 (stereo not shown) [Ex. 5M, N-bornyl benzamide]
rel. cooling intensity [1]: 0.6

COc1ccc(C(=O)NC(C)(C(C)C)C(C)C)cc1 [Ex. 4, N-1-methyl-1-isopropylisobutyl anisamide]
rel. cooling intensity [1]: 1.1 | cooling sensation in mouthwash (mouth): pleasant cooling sensation was felt in every area of the mouth

CC(C)C(NC(=O)c1ccc2c(c1)OCO2)C(C)C [Ex. 5H, N-(1-isopropyl-isobutyl)benzo[1,3]dioxole-5-carboxamide]
rel. cooling intensity [1]: 0.9

COC(=O)c1ccc(C(=O)NC2CC(C)CCC2C(C)C)cc1 (stereo not shown) [Ex. 5D, N-(3-p-menthyl) O-methylterephthalamate]
rel. cooling intensity [1]: 2.5

CCC(CC)(CC)NC(=O)c1ccc2c(c1)OCO2 [Ex. 5L, N-(1,1-diethylpropyl)benzo[1,3]dioxole-5-carboxamide]
rel. cooling intensity [1]: 0.3

CCC(CC)(CC)NC(=O)c1ccc(-c2ccccc2)cc1 [Ex. 5E, N-(1,1-diethylpropyl)biphenyl-4-carboxamide]
rel. cooling intensity [1]: 1.2
